Laboratory results as given in patent US12310372B1, “Water-based insect repellent composition” (priority 2022, dated 2025).

Tested on: Culex quinquefasciatus
Assay: K & D Module Repellency Test (Complete Protection Time on volunteer's arm)
Assay type: in vivo
Conditions: Table 2; for Avg Duration: active package only in water/isopropanol, 100% repellency threshold (CPT)
Text: Efficacy, Duration, and Percent Repellency: The primary method used to assess the efficacy and duration of an insect repellent is the “Arm-in-Cage Test”. The term “duration” as used herein refers to the time between (1) the application of the insect repellent composition and (2) when the subject first drops below the applicable minimum percent repellency threshold. For all of the testing methodologies used herein, the minimum threshold value for “percent repellency” at which the measurement for duration is cutoff is at least (≥) 90% repellency. For some testing methodologies used herein (such as the “Arm-in-Cage Test”), the minimum threshold value for “percent repellency” was 90% repellency. For other testing methodologies used herein (such as the “K & D Module Repellency Test”), the minimum threshold value for percent repellency was 100% repellency. When a duration is measured using a minimum threshold of 100% repellency, the duration may also be referred to as “Complete Protection Time” (CPT).
Another method that may be used to assess the insect repellent efficacy of an insect repellent composition is the “K & D Module Repellency Test.” The insect repellent efficacy is measured using a minimum repellency threshold of 100% repellency, which may also be referred to as the Complete Protection Time (CPT) of an insect repellent composition, which is the time period between the application of the insect repellent composition and the first insect landing.
In the K & D Module Repellency Test the test volunteer used a marker and a template, representing the base and the 3 cm.×4 cm. openings of the K & D module, to mark skin areas of his/her arm which were then treated with different insect repellent compositions at a skin dose of 0.0017 grams/cm^2 against the insect (in this case, Culex quinquefasciatus). The rectangular marks on the volunteer's arm represented where the six cells of the K & D module were positioned on the volunteer's arm. Each cell of the K & D module was filled with ten mated female mosquitoes (Culex quinquefasciatus), and the floor slide was removed from each cell to expose all mosquitoes to all skin treatments. The time between removing the floor slide of each cell and the first mosquito from the cell landing is recorded as the CPT.

## CC(C)=CCC/C(C)=C/CO [CE36, geraniol]
  Avg Duration: 0.8 h
Skin dose 0.0017 grams/cm^2
  Avg Duration: 0.833 h
Active package only
  Duration (Min) (Time of confirmation land) Subject 1: 30 min
  Duration (Min) (Time of confirmation land) Subject 2: 60 min
  Duration (Min) (Time of confirmation land) Subject 3: 60 min

## C=CCc1ccc(O)c(OC)c1 [CE17, eugenol]
  Avg Duration: 1.7 h
Skin dose 0.0017 grams/cm^2
  Avg Duration: 1.67 h
Active package only
  Duration (Min) (Time of confirmation land) Subject 1: 60 min
  Duration (Min) (Time of confirmation land) Subject 2: 120 min
  Duration (Min) (Time of confirmation land) Subject 3: 120 min
Active package only, Subject 4
  Duration (Min) (Time of confirmation land) Subject 4: 100 min
